US20140066394A1, “Substituted 6-(Benzylamino) Purine Riboside Derivatives, Use Thereof and Compositions Containing These Derivatives” (Biopatterns, S.R.O, priority 2009, published 2014)

What was measured:
[1] = test system: Peripheral blood neutrophils; assay: Neutrophil apoptosis, Giemsa stain and light microscopy; assay type: cell-based; conditions: Homo sapiens, 20 hours culture, read-out: IC50 of inhibition of neutrophil apoptosis
Protocol: Neutrophils were cultured at 2×10^6 cells/ml for 20 h in RPMI1640 medium containing human serum and antibiotics and a range of concentrations of compound 10. Apoptosis was determined by differential Giemsa staining and light microscopy to determine cells with an apoptotic nuclear morphology. Data are mean±SD of 5 separate experiments.
Effects of the compounds on neutrophil apoptosis were also determined as an indication of utility in diseases where their survival is dysregulated such as systemic vasculitis and chronic inflammatory disease. Peripheral blood neutrophils were cultured for 20 hours in RPMI1640 medium containing 2% human AB serum, 2 mM L-glutamine and antibiotics (100 U/ml penicillin, […] streptomycin) and their apoptosis determined by staining with Giemsa stain and observing an apoptotic morphology by light microscopy (see Pongracz J et al. 1999, J. Biol. Chem. 274: 37329-37334). Compound 10 inhibited neurophil apoptosis with an IC50 of 1 μM (FIG. 4).

neutrophils = assay: ANCA induced neutrophil apoptosis; assay type: cell-based; conditions: Homo sapiens, 10 hours, TNFα pre-treated, anti-PR3 and anti-MPO ANCA (FIG. 9), read-out: IC50 for overcoming the increase in apoptosis imposed by ANCA
Protocol: Neutrophils were cultured at 2×10^6 cells/ml for 10 h in RPMI1640 medium containing human serum and antibiotics and a range of concentrations of compound 10 in the absence or presence of ANCA. Apoptosis was determined by flow cytometry after DiOC6 staining.
ANCA are predominantly IgG autoantibodies directed against constituents of primary granules of neutrophils (PR3 and MPO). ANCA associated vasculitis is the most common primary systemic small-vessel vasculitis in adults. The common pathology of this disease is focal necrotizing lesions of blood vessels and may affect different vessels and organs. […] Neutrophils were cultured for 10 hours in RPMI1640 medium containing 2% human AB serum, 2 mM L-glutamine and antibiotics (100 U/ml penicillin, […] streptomycin) and their apoptosis determined by staining with Giemsa stain and observing an apoptotic morphology by light microscopy. […] The ability of compound 10 to inhibit ANCA-induced neutrophil inflammatory functions was also determined Neutrophils were cultured in RPMI1640 medium containing 2% human AB serum, 2 mM L-glutamine and antibiotics (100 U/ml penicillin, […] streptomycin). […] ANCA stimulated degranulation of neutrophils was assessed by release of myeloperoxidase in to the medium over a 30 minute period, with MPO measured by ELISA. […] HUVEC viability was determined by trypan blue staining and light microscopy.

IC50 [1]: 1000 nM | IC50 (neutrophils): 4000 nM
SMILES: COc1cccc(CNc2nc(Cl)nc3c2ncn3C2OC(CO)C(O)C2O)c1O (centres unmarked) [Compound 10, 2-Chloro-6-(2-hydroxy-3-methoxybenzylamino)purine riboside]
